Two compounds from US9163024B2, “Tris salts of 8-chloro-3-pentyl-3,7-dihydro-1H-purine-2,6-dione” (GlaxoSmithKline LLC, priority 2008, dated 2015) can be followed below.

Structures can show the parent of a compound that is named as a salt.

Data set [1] can be described thus: physical stability: conversion to a hydrated form during aqueous based processing (wet granulation). The class given is physicochemical. The settings on record: during essential manufacturing processes / aqueous based processing steps, e.g. wet granulation; tris salt compared to free acid.
The nature of the next data set: solubility. To be noted: tris salt compared to free acid. It is filed as physicochemical.
Another data set is described as follows: absorption (Cmax, Tmax). The settings on record: tris salt compared to free acid. The class given is in vivo.

In the case of `CCCCCn1c(=O)[nH]c(=O)c2[nH]c(Cl)nc21` [tris salt, 8-chloro-3-pentyl-3,7-dihydro-1H-purine-2,6-dione trishydroxymethylaminomethane], the “physical stability (remains in original form, no conversion by hydration)” value in data set [1] is recorded as “enhanced physical stability”. In “solubility”, the solubility result is reported as “higher solubility than the free acid”. Moreover, the Cmax entry in “absorption (Cmax, Tmax)” is listed as “increased”. Besides, the Tmax result in the data set “absorption (Cmax, Tmax)” (indicates faster absorption) is reported as “decreased”.

As to `CCCCCn1c(=O)[nH]c(=O)c2[nH]c(Cl)nc21` [free acid, 8-chloro-3-pentyl-3,7-dihydro-1H-purine-2,6-dione], in data set [1], the “physical stability (remains in original form, no conversion by hydration)” value is reported as “readily convert to a hydrated form”.
